These results are taken from patent publication US20140255392A1 (BAYER INTELLECTUAL PROPERTY GMBH, priority 2011, published 2014).

The target in this experiment is T1, human kinase Mps-1 (Homo sapiens, UniProt P33981).
T1 construct: N-terminally GST-tagged human full length recombinant Mps-1 kinase; GST (N); purchased Invitrogen, Karslruhe, Germany PV4071
T1 sequence (P33981 1-857): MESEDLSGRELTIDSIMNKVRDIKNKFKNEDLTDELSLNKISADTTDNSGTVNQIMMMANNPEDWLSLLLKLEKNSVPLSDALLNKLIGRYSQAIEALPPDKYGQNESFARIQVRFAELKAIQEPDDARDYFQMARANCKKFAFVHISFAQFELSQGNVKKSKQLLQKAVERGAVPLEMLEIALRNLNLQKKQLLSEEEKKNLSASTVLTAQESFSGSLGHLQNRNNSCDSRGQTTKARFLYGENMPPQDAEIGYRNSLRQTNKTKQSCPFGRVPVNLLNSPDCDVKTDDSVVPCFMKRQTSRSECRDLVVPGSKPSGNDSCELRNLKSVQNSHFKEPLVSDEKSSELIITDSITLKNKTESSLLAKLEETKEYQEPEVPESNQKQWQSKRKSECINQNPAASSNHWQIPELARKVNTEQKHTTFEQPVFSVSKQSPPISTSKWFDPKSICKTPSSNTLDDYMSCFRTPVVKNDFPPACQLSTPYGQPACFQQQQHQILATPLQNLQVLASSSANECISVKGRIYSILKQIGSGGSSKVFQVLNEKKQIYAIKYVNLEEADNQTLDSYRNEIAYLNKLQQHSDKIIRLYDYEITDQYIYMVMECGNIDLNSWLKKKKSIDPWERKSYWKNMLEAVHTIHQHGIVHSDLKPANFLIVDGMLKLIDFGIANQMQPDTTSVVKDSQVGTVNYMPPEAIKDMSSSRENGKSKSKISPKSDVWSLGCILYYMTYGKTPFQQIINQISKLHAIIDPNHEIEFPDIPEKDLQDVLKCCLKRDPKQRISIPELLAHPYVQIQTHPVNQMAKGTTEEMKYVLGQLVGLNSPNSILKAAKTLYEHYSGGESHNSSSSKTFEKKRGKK
In words: Mps-1 kinase assay (TR-FRET). Type of experiment: biochemical. Conditions: N-terminally GST-tagged human full length recombinant Mps-1; 10 μM ATP; 1 μM peptide substrate; 60 min at 22° C. As to the method:
The human kinase Mps-1 phosphorylates a biotinylated substrate peptide. Detection of the phosphorylated product is achieved by time-resolved fluorescence resonance energy transfer (TR-FRET) from Europium-labelled anti-phospho-Serine/Threonine antibody as donor to streptavidin labelled with cross-linked allophycocyanin (SA-XLent) as acceptor. Compounds are tested for their inhibition of the kinase activity.
N-terminally GST-tagged human full length recombinant Mps-1 kinase (purchased from Invitrogen, Karslruhe, Germany, cat. no PV4071) was used. As substrate for the kinase reaction a biotinylated peptide of the amino-acid sequence […] (C-terminus in amide form, purchased from Biosynthan GmbH, Berlin) was used.
The concentration of Mps-1 in the assay was adjusted to the activity of the enzyme lot and was chosen appropriate to have the assay in the linear range, typical enzyme concentrations were in the range of about 1 nM (final conc. in the 5 μl assay volume).
The resulting mixture was incubated 1 h at 22° C. to allow the binding of the phosphorylated peptide to the anti-phospho(Ser/Thr)-Europium-antibody. Subsequently the amount of phosphorylated substrate was evaluated by measurement of the resonance energy transfer from the Europium-labelled anti-phospho(Ser/Thr) antibody to the Streptavidin-XLent.
On to `Cc1cc(-c2cnc3c(NCCC(F)(F)F)cc(-c4ccc(C(=O)N[C@H]5C[C@@H]5F)c(C)c4)cn23)ccc1C(=O)NC1CC1` (relative stereo) [Example 152, 4-{3-[4-(cyclopropylcarbamoyl)-3-methylphenyl]-8-[(3,3,3-trifluoropropyl)amino]imidazo[1,2-a]pyridin-6-yl}-N-[rel-(1S,2S)-2-fluorocyclopropyl]-2-methylbenzamide], for which the IC50 stood at 800 pM.
Regarding `CNC(=O)c1ccc(-c2cnc3c(NCCC(F)(F)F)cc(-c4ccc(C(=O)N[C@H]5C[C@@H]5F)c(C)c4)cn23)cc1C` (relative stereo) [Example 154, 4-{6-(4-{[rel-(1S,2S)-2-fluorocyclopropyl]carbamoyl}-3-methylphenyl)-8-[(3,3,3-trifluoropropyl)amino]imidazo[1,2-a]pyridin-3-yl}-N,2-dimethylbenzamide], the IC50 came to 12700 pM.
Regarding `Cc1cc(-c2cnc3c(NCCC(F)(F)F)cc(Oc4cccc(F)c4)cn23)ccc1C(=O)NC1CC1F` (single isomer, unassigned) [Example 12 (A or ent.-A), N-{[(1S,2S) or (1R,2R)]-2-fluorocyclopropyl}-4-{6-(3-fluorophenoxy)-8-[(3,3,3-trifluoropropyl)amino]imidazo[1,2-a]pyridin-3-yl}-2-methylbenzamide], the IC50 came to 800 pM.
Consider `Cc1cc(-c2cnc3c(NCCC(F)(F)F)cc(Oc4cccc(F)c4)cn23)ccc1C(=O)NC1CC1F` (single isomer, unassigned) [Example 12 (ent.-A or A), N-{[(1R,2R) or (1S,2S)]-2-fluorocyclopropyl}-4-{6-(3-fluorophenoxy)-8-[(3,3,3-trifluoropropyl)amino]imidazo[1,2-a]pyridin-3-yl}-2-methylbenzamide], for which the IC50 came to 700 pM.
Regarding `Cc1cc(-c2cnc3c(NCCC(F)(F)F)cc(Oc4cccc(Cl)c4)cn23)ccc1C(=O)NC1CC1F` (single isomer, unassigned) [Example 39 (A or ent.-A), 4-{6-(3-chlorophenoxy)-8-[(3,3,3-trifluoropropyl)amino]imidazo[1,2-a]pyridin-3-yl}-N-{[(1S,2S) or (1R,2R)]-2-fluorocyclopropyl}-2-methylbenzamide], the IC50 came to 2900 pM.
With `Cc1cc(-c2cnc3c(NCCC(F)(F)F)cc(Oc4cccc(Cl)c4)cn23)ccc1C(=O)NC1CC1F` (single isomer, unassigned) [Example 39 (ent.-A or A), 4-{6-(3-chlorophenoxy)-8-[(3,3,3-trifluoropropyl)amino]imidazo[1,2-a]pyridin-3-yl}-N-{[1R,2R) or (1S,2S)]-2-fluorocyclopropyl}-2-methylbenzamide] the figure was 4900 pM; with `Cc1cc(-c2cnc3c(NCCC(F)(F)F)cc(-c4ccccc4CO)cn23)ccc1C(=O)NC1CC1` [Example 2-1, N-cyclopropyl-4-{6-[2-(hydroxymethyl)phenyl]-8-[(3,3,3-trifluoropropyl)amino]imidazo[1,2-a]pyridin-3-yl}-2-methylbenzamide], 900 pM.
`Cc1cc(-c2cnc3c(NCCC(F)(F)F)cc(-c4ccncc4)cn23)ccc1C(=O)NC1CC1` [Example 2-2, N-cyclopropyl-2-methyl-4-{6-(pyridin-4-yl)-8-[(3,3,3-trifluoropropyl)amino]imidazo [1,2-a]pyridin-3-yl} benzamide]: the IC50 came out at 300 pM.
On to `Cc1cc(F)cc(Sc2cc(NCCC(F)(F)F)c3ncc(-c4ccc(C(=O)NC5CC5)c(C)c4)n3c2)c1` [Example 3-1, N-cyclopropyl-4-{6-[(3-fluoro-5-methylphenyl)sulfanyl]-8-[(3,3,3-trifluoropropyl)amino]imidazo[1,2-a]pyridin-3-yl}-2-methylbenzamide], for which the IC50 stood at 600 pM.
For the compound `Cc1cc(-c2cnc3c(NCCC(F)(F)F)cc(Sc4cccc(F)c4F)cn23)ccc1C(=O)NC1CC1` [Example 3-2, N-cyclopropyl-4-{6-[(2,3-difluorophenyl)sulfanyl]-8-[(3,3,3-trifluoropropyl)amino]imidazo[1,2-a]pyridin-3-yl}-2-methylbenzamide], the IC50 stood at 300 pM.

As a reminder, the IC50 is the concentration that inhibits the measured activity by half.
